In US6455577B2, “Flavanone derivatives and composition for preventing or treating blood lipid level-related diseases comprising same” (Korea Research Institute of Bioscience and Biotechnology, priority 2000, dated 2002):

Assays:
Sprague-Dawley rats = assay: Plasma total cholesterol, HDL-cholesterol and triglyceride levels in rats fed high-cholesterol diet; format: in vivo, rat
Excerpt: (Step 1) Administration of NG5006 to rats
30 four-week-old white Sprague-Dawley rats (Korea Institute of Science and Technology, Korea), each weighing about 90 to 120 g, were evenly divided into three dietary groups by a randomized block design. The rats of the three groups were fed with three different high-cholesterol diets, i.e., AIN-76 laboratory animal diet(ICN Biochemicals, Cleveland, Ohio, U.S.A.) containing 1% cholesterol(Control group), 1% cholesterol plus 0.02% naringenin and 1% cholesterol plus 0.036% NG5006, respectively.
The rats were allowed to feed freely on the specified diet together with water for six weeks, the ingestion amount was recorded daily and the rats were weighed every 7 days, and then the record was analyzed. […] (Step 2) Determination of total cholesterol, HDL-cholesterol and triglyceride contents in blood
The effects of administering naringenin or NG5006 to rats on the plasma cholesterol and triglyceride contents were determined as follows.
Blood samples were taken from the rats of the three dietary groups and total cholesterol level was determined by using Sigma Diagnostic Kit Cat. No. C0534(Sigma Chemical Co., U.S.A.). HDL fractions were separated therefrom by using HDL-cholesterol reagent(Sigma Chemical Co., Cat. No. 352-1) and HDL-cholesterol level was determined by using Sigma Diagnostic Kit Cat. No. C9908(Sigma Chemical Co., U.S.A.). Triglyceride level was determined by using Sigma Diagnostic Kit Cat. No. 336-10(Sigma Chemical Co., U.S.A.).

[1] = system: New Zealand White rabbits; assay: Fatty streak in the main artery of cholesterol-fed rabbits; format: in vivo, rabbit
Description: (§1) 22 three-month-old New Zealand White rabbits(Yeonam Horticulture and Animal Husbandry College, Korea) each weighing about 2.0 to 2.3 kg were bred under a condition of temperature 20±2° C., relative humidity 55±10%, and photoperiod 12L/12D. The rabbits were divided two groups of 6 rabbits and a group of 10 rabbits, and the rats of three groups were fed with three different diets, i.e., RC4 diet(Oriental Yeast Co., Japan) containing 1% cholesterol(Control group); 1% cholesterol plus 1 mg/kg Lovastatin® (Merck, U.S.A.)(Comparative group); and 1% cholesterol plus 0.1% NG5006, respectively. RC4 diet comprises 7.6% moisture, 22.8% crude protein, 2.8% crude fat, 8.8% crude ash, 14.4% crude cellulose and 43.6% soluble nitrogen-free substances. The rabbits were bred for 8 weeks while being allowed free access to the diets and water.
The rabbits bred in Step 1 were sacrificed and their chest were incised. The main artery was cut out therefrom in a length of about 5 cm downward from the site 1 cm above the aortic valve and the fat surrounding the main artery was removed. The main artery was incised in the middle along the longitudinal axis and fixed in 10% neutral buffered formalin for 24 hours, and then, pinned to a dish. The moist artery was photographed and, then, staining of fatty streak was carried out in accordance with the method of Esper, E., et al. (J. Lab. Clin. Med., 121, 103-110(1993)) as follows.
A part of the incised main artery was washed three times by 2 min. with anhydrous propylene glycol and stained for 30 min. with a saturated solution of Oil Red O(ORO, Sigma Co.) dissolved in propylene glycol. Thereafter, the artery was washed twice by 3 min. with 85% propylene glycol to remove remaining staining solution and, then washed with physical saline. The artery was photographed and the photograph was traced. The area of stained legion(fatty streak legion) was determined with an image analyzer(LEICA, Q-600, Germany) and its proportion(%) to the total arterial area was calculated. The result is shown in Table V. The results were tested by student t-test by using Microsoft excel(version 7.0) program.

[2] = system: New Zealand White rabbits; assay: Abnormal fat-containing liver cells (fatty liver) in cholesterol-fed rabbits; format: in vivo, rabbit
Description: as §1
In order to evaluate the effects of feeding a high cholesterol diet with NG5006 on liver tissues, the liver specimens taken from the sacrificed rabbit in Step 2 of Example 14 were treated in accordance with the procedure disclosed in Fogt F. and Nanji A., Toxicology and Applied Pharmacology, 136, 87-93, 1996; and Keegan A., et al., Journal of Hepatology, 23, 591-600, 1995, and observed under a microscope to be classified into four grades, i.e., 1+(0-25%), 2+(26-50%), 3+(51-75), 4+(76-100%) based on the proportion of abnormal fat-containing cells around the central vein in the liver acinus. The results were tested by student t-test by using Microsoft excel(version 7.0) program.

ACAT = ACAT activity in fed rabbits; format: in vivo, rabbit; conditions: rabbits fed 1% cholesterol plus 1 mg/kg Lovastatin or 0.1% NG5006, 8 weeks
Description: as §1
The effect of feeding NG5006 to rabbits on the activities of ACAT was determined using the rabbits bred in Step 1 of Example 14 in accordance with procedure disclosed in step 1 of Example 13.

[3] = plasma, rats on 1% cholesterol diet plus 0.02% naringenin or 0.036% NG5006, six weeks
[4] = rats, 1% cholesterol diet, six weeks
[5] = 1% cholesterol plus 1 mg/kg Lovastatin or 0.1% NG5006

Structure (SMILES): CCCCCCCCCCCCCCCCOc1cc(O)c2c(c1)OC(c1ccc(O)cc1)CC2=O (stereo not shown) [NG5006, Naringenin 7-O-cetyl Ether]
- HDL-C (HDL-cholesterol) (Sprague-Dawley rats; [3]): 36.7 ± 1.3 mg/dL
- HDL-C/Total-C (Sprague-Dawley rats; [3]): 20.4 ± 0.7%
- TG (triglyceride) (Sprague-Dawley rats; [3]): 118.4 ± 3.4 mg/dL
- Total-C (total cholesterol) (Sprague-Dawley rats; [3]): 183.5 ± 6.4 mg/dL
- AI: Atherosclerosis Index (AI = (Total-C − HDL-C)/HDL-C) (Sprague-Dawley rats; rats on 1% cholesterol diet plus 0.02% naringenin or 0.036% NG5006, six weeks): 4.0 ± 0.2
- lowering blood lipid level, comparison in words (Sprague-Dawley rats; [4]): superior to naringenin in lowering blood lipid level
- total plasma cholesterol level lower than in the Control group (Sprague-Dawley rats; [4]): 19%
- triglyceride level lower than in the control group (Sprague-Dawley rats; [4]): 33%
- layer on the arterial endothelium (FIGS. 1B, 1C) [1, 5]: no or very thin layers of macrophage-lipid complex
- formation of fatty streak compared to the control group, in words ([1]; 1% cholesterol plus 1 mg/kg Lovastatin or 0.1% NG5006, 8 weeks): significantly inhibit the formation of fatty streak
- Fatty Streak lesion (proportion of total arterial area) ([1]; 1% cholesterol plus 1 mg/kg Lovastatin or 0.1% NG5006, 8 weeks, Oil Red O staining): 12.3 ± 6.2%
- microscopic features of the livers (FIGS. 2B, 2C) [2, 5]: almost all liver cells are of a normal shape
- formation of fatty liver compared to the Control and the Lovastatin group, in words ([2]; 1% cholesterol plus 0.1% NG5006): significantly inhibits the formation of fatty liver
- Proportion of abnormal fat-containing liver cells (grade) ([2]; grades 1+(0-25%), 2+(26-50%), 3+(51-75), 4+(76-100%), 1% cholesterol plus 1 mg/kg Lovastatin or 0.1% NG5006, 8 weeks): 2.2 ± 0.9
- ACAT activity (ACAT): 215.2 ± 30.3 pmole/min/mg protein
- % Inhibition on ACAT Activity (ACAT; versus control group): 16.2%
